As usually defined, the melting point is the temperature, or range, at which the solid turns liquid.

Drawing on patent US6380203B1, “Angiogenesis inhibitors” (Merck & Co., Inc., priority 1998, dated 2002), this text covers melting point for 1 compound.

The structures appear in SMILES notation.

`c1cc(-c2cnn3cc(-c4ccc(OCCN5CCOCC5)cc4)cnc23)cs1` [Example 4, 3-(3-thienyl)-6-(4-(2-(4-morpholinyl)ethoxy)phenyl) pyrazolo(1,5-A)pyrimidine] had a melting point of 149 to 151 °C.
